“Also recorded” adds a separate entry of the source. Marks after values point to notes of the source that are not given here.
Tests used:
[1] = tested on: Osteoblast-like rat osteosarcoma cells (ROS17/2.8); assay: Intracellular calcium measurements (Fura-2 fluorimetry), with or without VDCC blockers, PLC inhibitors or thapsigargin; type: cell-based; set-up: Δ[Ca^2+]i: unit not given here; conditions: for Ca^2+ response after depletion of Ca^2+ stores with thapsigargin: 1 μM thapsigargin, bisphosphonate 10 nM; for % Inhibition (decrease in Δ[Ca^2+]i) / [Ca^2+]i / Δ[Ca^2+]i: 10^−8 M; for rapid (1 min) increase in cytosolic Ca^2+ after pretreatment with PLC inhibitors: U73122 (2 μM) or neomycin (0.5 mM); for rapid (1 min) increase in cytosolic Ca^2+ after pretreatment with U73343: U73343, analogue of U73122 devoid of effect on PLC, not shown; for reduction of the induced [Ca^2+]i increase by VDCC blockers: pretreatment with nifedipine (2 μM) or verapamil (5 μM)
Method: (§1) Osteoblast-like rat osteosarcoma cells (ROS17/2.8) were cultured as monolayers at 37° C. in Dulbecco's modified Eagle's medium (DME) containing 10% fetal bovine serum under humidified air (5.5% CO2). After 48 hours, medium was changed to DME containing 1% fetal bovine serum. Unless otherwise stated, cells were allowed to grow until confluence (4-5 days after plating).
Intracellular Ca^2+ changes were monitored by using the Ca^2+-sensitive fluorescent dye Fura-2 as previously described (Vasquez et al., 1998, J. Biol. Chem. 273, 33954-33960). Cell dye loading was achieved by incubating the cells in buffer A containing (in mM): 138 NaCl, 5 KCl, 1 MgCl2, 5 glucose, 10 HEPES (pH 7.4), 1.5 CaCl2, plus 0.1% bovine serumalbumin (BSA), 2 μM of the pentaacetoxymethylester derivative (membrane permeable) Fura-2/AM and 0.012% pluronic F-127, in the dark during 40 min at room temperature (20-25° C.) in order to minimize dye compartmentalization. Unloaded dye was washed out and cells were stored in buffer B (buffer A without BSA, Fura-2/AM and pluronic F-127) in the dark (room temperature) by at least 30 min prior to use, to allow for complete intracellular dye deesterification. For fluorescence measurements the coverslips containing dye-loaded cells were mounted into quartz cuvettes and introduced into the thermostatized (37° C.) sample compartment of a SLM Aminco 8100 spectrofluorimeter. Fura-2 intracellular fluorescence intensity was monitored at an emission wavelength of 510 nm (8 nm bandpass) by alternating with an electronically controlled chopper (300 Hz) the excitation wavelength between 340 and 390 nm employing a dual excitation monochromator at 4 nm bandpass. Signals from short and long wavelength were ratioed (R=340/390) thus making the measurement independent of variations in cellular dye content, dye leakage or photobleaching. Calibration of Fura-2 signal to calculate [Ca^2+]i values was performed for each coverslip as follows: maximal (Rmax) and minimal (Rmin) intracellular dye fluorescence signals were determined by adding 5 μM ionomycin plus 3 mM Ca^2+ and 10 mM EGTA (pH 7.0) plus 10 mM Tris-base (pH 9.0), respectively.
[Ca^2+]i=Kd(R−Rmin)/(Rmax−R)×β
where R is the ratio of Fura-2 fluorescence at the selected wavelengths, Rmax and Rmin represent ratios from Ca^2+ saturated and Ca^2+ free intracellular dye, respectively, and β is the ratio between the specific fluorescence of the Ca^2+ free and Ca^2+ bound forms of the dye at the longer wavelength (Sf2/Sb2).
Fura-2 loaded osteoblasts were treated with vehicle (buffered saline solution, Basal), OPD (10−8 M) or NH2-OPD (10^−8 M) and intracellular Ca^2+ concentration ([Ca^2+]i) was measured as described. Given are [Ca^2+]i values corresponding to the plateau phase (5 min after BP exposure; see FIG. 3) of the BP-induced Ca^2+ response. When used, both nifedipine (2 μM) and verapamil (5 μM) were added 3 min before stimulation. Data are the average of 5 independent [Ca^2−]i recordings±sd. p values (*p<0.001; **p<0.01) are given for significant differences respect to basal. Percent (%) inhibition refers to the decrease in Δ[Ca^2+]i.
Fura-2 loaded cells were treated with vehicle (buffered saline solution, Basal), OPD (10^−8 M) or NH2-OPD (10^−8 M) and intracellular Ca^2+ concentration ([Ca^2+]i) was measured as described. Unless otherwise indicated, [Ca^2+]i stimulation was evaluated at the plateau phase of the BP-induced response (see FIG. 3). When used, the PLC inhibitors U73122 (2 μM) or neomycin (0.5 mM, data in parentheses) were added into the measurement cuvette 3 min before stimulation. In the PLC-inhibition assay [Ca^2+]i values measured at 1- and 5-min. after stimulation are given. Results are expressed as percent of control (100%) to allow comparison among different assay conditions, and are the average of 3 independent experiments±sd. *p<0.001; **p<0.01. Percent (%) inhibition refers to the decrease in Δ[Ca^2+]i.

[2] = tested on: Osteoblast-like rat osteosarcoma cells (ROS17/2.8); assay: Determination of osteocalcin synthesis (radio-immunoassay of OC released into the medium); type: cell-based; conditions: for order of potency relative to 1,25(OH)2D3 (induction of OC synthesis): 1,25(OH)2D3 = 1.0; for effectiveness on OC synthesis compared with the steroid hormone 1,25(OH)2D3 / stimulation of OC synthesis: 72 hours incubation
Method: Cells were grown by 72 hours in the absence (control) or presence of the indicated concentrations of 1α, 25-dihydroxy-vitamin D3[1,25(OH)2D3], EHDP, APD, OPD or NH2-OPD. Then osteocalcin (OC) released into the medium was quantitated as described in Example 4. Data are the average±SD of 3 independent experiments performed by triplicate.
as §1
Osteoblasts grown by 48 hours in multiwells were changed to Dulbecco's modified Eagle's medium containing 1% fetal bovine serum plus the indicated concentration of BP, 10^−8 M 1,25(OH)2D3 (positive control), or vehicle alone, and then allowed to grow for an additional period of 72 hours. The medium from each well was collected and stored frozen at −80° C. until use for osteocalcin measurements. Osteocalcin (OC) was quantitatively measured by radio-immunoassay using a commercially avalaible kit (Osteocalcin DSL-6900, Diagnostic Systems Laboratories Inc., Webster, Tex., USA) according to manufacturer's instructions. Osteocalcin values were corrected for total cellular protein content.

[3] = tested on: bone resorption; conditions: Van Beek E. et al., 1996, J. Bone Miner. Res. 11, 1492-1497; cited from earlier work
[4] = U73122 (2 μM), 1 min after stimulation
[5] = U73122 (2 μM), 5 min after stimulation
[6] = neomycin (0.5 mM, data in parentheses), 1 min
[7] = neomycin (0.5 mM, data in parentheses), 1 min after stimulation
[8] = neomycin (0.5 mM, data in parentheses), 5 min
[9] = neomycin (0.5 mM, data in parentheses), 5 min after stimulation
[10] = plateau phase (5 min), nifedipine (2 μM) pretreatment
[11] = plateau phase (5 min), nifedipine (2 μM) pretreatment 3 min before
[12] = plateau phase (5 min), no pretreatment, basal 135 ± 6
[13] = plateau phase (5 min), no pretreatment, difference to basal
[14] = plateau phase (5 min), verapamil (5 μM) pretreatment
[15] = plateau phase (5 min), verapamil (5 μM) pretreatment 3 min before
[16] = plateau phase, no PLC inhibitor
[17] = plateau phase, no PLC inhibitor, difference to control (100%)

Structure (SMILES) | maximal change in cytosolic Ca^2+ relative to 1,25(OH)2D3 ([1]; 10 nM) | time-to-peak of cytosolic Ca^2+ change ([1]; 10 nM) | Ca^2+ response after depletion of Ca^2+ stores with thapsigargin [1] | % Inhibition (decrease in Δ[Ca^2+]i) ([1]; U73122 (2 μM), 1 min) | [Ca^2+]i [1, 4] | % Inhibition (decrease in Δ[Ca^2+]i) ([1]; U73122 (2 μM), 5 min) | [Ca^2+]i [1, 5] | % Inhibition (decrease in Δ[Ca^2+]i) [1, 6] | [Ca^2+]i [1, 7] | % Inhibition (decrease in Δ[Ca^2+]i) [1, 8] | [Ca^2+]i [1, 9] | % Inhibition (decrease in Δ[Ca^2+]i) [1, 10] | Δ[Ca^2+]i [1, 10] | [Ca^2+]i [1, 11] | [Ca^2+]i [1, 12] | Δ[Ca^2+]i [1, 13] | % Inhibition (decrease in Δ[Ca^2+]i) [1, 14] | [Ca^2+]i [1, 15] | order of potency relative to 1,25(OH)2D3 (induction of OC synthesis) ([2]; 10^−8 M, 72 hours) | effectiveness on OC synthesis compared with the steroid hormone 1,25(OH)2D3 [2] | other results
CN(C)CCC(N)(P(=O)(O)O)P(=O)(O)O [NH2-OPD, 1-amino-3-(N,N-dimethylamino)-propylidene-1,1-bisphosphonic acid] | less effective than the steroid | 80 s | completely blocked | 100% | 101 ± 5% of control (100%) | 100(100) % | 100 ± 11% of control (100%) | 99% | 99 ± 1% of control (100%) | 100(100) % | 100 ± 5% of control (100%) | 90% | 2 | 137 ± 6 nM | 150 ± 3** nM | 15 | 100% | 133 ± 7 nM | 0.85 | lower than for the secosteroid | [Ca^2+]i [1, 16]: 137 ± 3** percent of control (100%); Δ[Ca^2+]i [1, 17]: 37; rapid increase in [Ca^2+]i (time of onset) ([1]; Fura-2 loaded cells): 60 s; rapid (1 min) increase in cytosolic Ca^2+ after pretreatment with PLC inhibitors [1]: totally blocked; rapid (1 min) increase in cytosolic Ca^2+ after pretreatment with U73343 [1]: not by U73343; reduction of the induced [Ca^2+]i increase by VDCC blockers [1]: almost completely abolished; return of [Ca^2+]i to near basal levels after peak ([1]; transient Ca^2+ rise, down-turn phase after peak): 1 to 2 min; stimulation of OC synthesis [2]: markedly stimulated OC synthesis in a dose-dependent fashion; antiresorptive activity [3]: complete loss of antiresorptive activity; also recorded: absolutely devoid of antiresorptive properties
CN(C)CCC(O)(P(=O)(O)O)P(=O)(O)O [OPD, olpadronate] | equipotent to the steroid | 60 s | completely blocked | 100(100) % | 105 ± 3% of control (100%) | 100(100) % | 100 ± 5% of control (100%) | 100(100) % | 98 ± 2% of control (100%) | 100(100) % | 100 ± 8% of control (100%) | 70% | 21 | 156 ± 8** nM | 205 ± 10* nM | 70 | 85% | 146 ± 5 nM | 1.9 | more effective than the steroid hormone | Δ[Ca^2+]i [1, 14]: 11; [Ca^2+]i [1, 16]: 164 ± 9* percent of control (100%); Δ[Ca^2+]i [1, 17]: 64; rapid (1 min) increase in cytosolic Ca^2+ after pretreatment with PLC inhibitors [1]: totally blocked; rapid (1 min) increase in cytosolic Ca^2+ after pretreatment with U73343 [1]: not by U73343; reduction of the induced [Ca^2+]i increase by VDCC blockers [1]: 70%; stimulation of OC synthesis [2]: markedly stimulated OC synthesis in a dose-dependent fashion
C=C1/C(=C\C=C2/CCC[C@]3(C)[C@@H]([C@H](C)CCCC(C)(C)O)CC[C@@H]23)C[C@@H](O)C[C@@H]1O [1,25(OH)2D3, 1α, 25-dihydroxy-vitamin D3] |  | 90 s |  |  |  |  |  |  |  |  |  |  |  |  |  |  |  |  | 1.0 |  | release of OC into the culture medium increased respect to control, untreated cells ([2]; 10^−8 M, 72 hours): 100%
CC(O)(P(=O)(O)O)P(=O)(O)O [EHDP, etidronate] | less effective than the steroid | 120 s |  |  |  |  |  |  |  |  |  |  |  |  |  |  |  |  | 0.85 |  | rate of Ca^2+ elevation, initial phase (0-2 min) ([1]; 10 nM): slowest rate of Ca^2+ elevation
NCCC(O)(P(=O)(O)O)P(=O)(O)O [APD, pamidronate] | less effective than the steroid | 80 s |  |  |  |  |  |  |  |  |  |  |  |  |  |  |  |  | 1.1 | more effective than the steroid hormone | 

Reference: patent publication US6605603B1, “Uses of 1-amino-3-(N,N-dimethylamino)-propylidene-1,1-bisphosphonic acid” (Gador, S.A., priority 1998, dated 2003)
